Results taken from US7696148B1, “Administration of products of the 5-lipoxygenase metabolic pathway to enhance antimicrobial defense” (Board of Trustees of Michigan State University, priority 1996, dated 2010).
Where two headings read alike, the source gives them in different places.

Legend:
[1] = tested on: alveolar macrophages from 5-LO knockout mice; assay: Phagocytosis of K. pneumoniae by alveolar macrophages from 5-LO knockout mice (phagocytic index); format: cell-based, mouse; settings: 5-LO knockout alveolar macrophages
Method: (§1) For assays of bacterial phagocytosis and killing, alveolar macrophages were purified from bronchoalveolar lavage cells by adherence for 1 hour in HBSS and studied in monolayer culture. Adherent cells were preincubated with 5% K. pneumoniae-specific immune serum (as a source of both complement and specific opsonizing antibody) for 5 minutes at 37° C. prior to assays. Phagocytosis was studied by incubating 10^5 alveolar macrophages with 10^6 K. pneumoniae in each well of an 8-well Labtek® plate (Nunc) for 1 hour at 37° C.; in some experiments, exogenous LTB4 (Cayman) was added concomitantly with bacteria. The supernatants were aspirated and the cells were washed 3 times with HBSS. The slides were then allowed to air dry, Diff-Quik® (Difco) staining was performed, and 200 cells per well were counted to determine number of intracellular K. pneumoniae and percent of alveolar macrophages containing bacteria. Phagocytic index was calculated as the mean percentage of alveolar macrophages containing bacteria multiplied by the mean number of bacteria per alveolar macrophage.
Cultured alveolar macrophages from knockout mice were incubated in the presence of specific serum for 1 hour with K. pneumoniae alone or in the presence of varying doses of LTB4. Phagocytic index was calculated as described in the General Methods. FIG. 6 graphically depicts the effect of exogenous LTB4 (none, 0.1 nM, and 5 nM LTB4 added) on bacterial phagocytic activity in alveolar macrophages from 5-LO KO mice; each value represents the mean from triplicate cultures. […] Though not required in order to practice the present invention, it is believed that neutrophils manifest similar functional defects in phagocytosis and killing which could contribute to the sensitivity to bacterial pneumonia seen in knockout mice in vivo.

[2] = tested on: neutrophils from 5-LO knockout mice; assay: Phagocytosis of K. pneumoniae by glycogen-elicited peritoneal neutrophils from 5-LO knockout mice; format: cell-based, mouse; settings: 1 nM LTB4, one hour
Method: as §1
To obtain peritoneal elicited neutrophils, mice are injected intraperitoneally with 5% glycogen in PBS and peritoneal lavage is performed 5 hours later. Approximately 3×10^6 cells are obtained from each animal, approximately 85-90% of which are neutrophils. These cells are likewise placed into culture for functional studies. […]

[3] = tested on: normal rat alveolar macrophages; assay: Phagocytosis of K. pneumoniae by normal rat alveolar macrophages (phagocytic index); format: cell-based, Wistar rats
Method: as §1
Alveolar macrophages from Wistar rats were adhered and then incubated for 1 hour with K. pneumoniae alone or in the presence of 1 nM of several 5-LO metabolites (LTB4, LTC4, and 5-HETE). Phagocytic index was subsequently determined as described above in the General Methods.
A related experiment was also performed to determine if the ability of exogenous LTB4 to enhance bacterial phagocytosis is mediated by its interaction with LTB4 receptors. This experiment was based on the fact that pretreatment with LTB4 desensitizes cells to subsequent LTB4 responsiveness; though an understanding of the mechanism of this effect is not required to practice the present invention, the desensitization is believed to occur by down-regulating receptor expression or coupling. For this experiment, cells were pretreated with LTB4 (1 nM) for 1 hour, washed, and incubated with bacteria plus LTB4.

[4] = tested on: K. pneumoniae; assay: Pulmonary bacterial clearance (lung homogenate CFU) after intratracheal K. pneumoniae challenge in 5-LO knockout mice; format: in vivo, mouse
Method: K. pneumoniae strain 43816, serotype 2 obtained from the ATCC (Assession No. 29939) was grown in tryptic soy broth (Difco) for 18 hours at 37° C. The preparation and intratracheal administration of K. pneumoniae were carried out as described by M. Schneemann et al. [J. Infect. Dis. 167:1358-1363 (1993)]. Bacterial concentration was determined by measuring absorbance at 600 nm and referencing to a standard curve of absorbances vs. known standard CFUs. Bacteria were then pelleted by centrifugation for 30 min at 10,000 rpm, washed ×2 in saline, and resuspended at the desired concentration in saline.
After appropriate dilution of bacteria in endotoxin-free saline, animals were anesthetized with sodium pentobarbital (approximately 0.2 mL diluted 1:7 in saline intraperitoneally) and the trachea was exposed via a small midline incision. […]
Plasma and lung CFU were determined as described by M. Schneemann et al. [J. Infect. […]
LTB4 was administered together with the intratracheal inoculum of K. pneumoniae (50 CFU). […] Second, the present inventors previously found (see FIG. 5) that approximately 7 ng of total LTB4 could be measured in the homogenate of a pair of lungs from Klebsiella-challenged wild type mice. […] Following 24 hours of bacterial inoculation, lungs were harvested and lung homogenate CFUs were determined.

[5] = in vivo bronchoscopic instillation into the human lung; cited from earlier work
[6] = tested on: peritoneal macrophages; settings: cited from earlier work
[7] = tested on: Schistosoma mansoni; settings: neutrophils; cited from earlier work
[8] = tested on: S. typhimurium; settings: intraperitoneal injection; cited from earlier work
[9] = 6 ng intratracheally per animal, 6 hours after administration, mice; cited from earlier work
[10] = mice, once-daily oral dose; cited from earlier work
[11] = biological target: T1, 5-LO (Mus musculus, UniProt P48999); settings: once-daily oral agent; cited from earlier work
T1 construct: from tissue; host or cells: whole animal: wild type mice (129/SvEv, The Jackson Laboratory)
T1 sequence (P48999 1-674): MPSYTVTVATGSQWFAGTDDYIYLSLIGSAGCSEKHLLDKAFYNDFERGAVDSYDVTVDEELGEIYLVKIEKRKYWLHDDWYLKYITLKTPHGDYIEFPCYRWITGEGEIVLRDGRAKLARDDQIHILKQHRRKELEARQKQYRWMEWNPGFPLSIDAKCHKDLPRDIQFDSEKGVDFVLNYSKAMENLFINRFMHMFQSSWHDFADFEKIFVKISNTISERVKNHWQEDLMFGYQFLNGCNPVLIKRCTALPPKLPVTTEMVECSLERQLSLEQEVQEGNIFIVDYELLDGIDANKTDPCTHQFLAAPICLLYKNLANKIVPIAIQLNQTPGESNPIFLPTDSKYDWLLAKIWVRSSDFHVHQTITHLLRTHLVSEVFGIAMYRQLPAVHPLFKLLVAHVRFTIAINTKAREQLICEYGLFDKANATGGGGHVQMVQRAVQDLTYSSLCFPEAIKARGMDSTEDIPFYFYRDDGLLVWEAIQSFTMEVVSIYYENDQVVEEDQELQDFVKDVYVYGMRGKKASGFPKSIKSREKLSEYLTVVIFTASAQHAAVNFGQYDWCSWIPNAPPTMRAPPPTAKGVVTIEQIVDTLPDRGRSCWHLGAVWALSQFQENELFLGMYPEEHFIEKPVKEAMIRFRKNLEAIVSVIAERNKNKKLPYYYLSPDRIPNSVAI

[12] = administered orally to rats; cited from earlier work
[13] = normal rat alveolar macrophages, 1 nM, 1 hour with K. pneumoniae

Structure (SMILES): CCCCC/C=C\C[C@@H](O)/C=C/C=C/C=C\[C@@H](O)CCCC(=O)O [LTB4, leukotriene B4]
- phagocytic index relative to baseline level ([1]; 5 nM LTB4, 1 hour with K. pneumoniae, specific serum): approximately three
- increase of phagocytic index ([1]; exogenous LTB4): approximately 300%
- effect on phagocytic index ([1]; none, 0.1 nM and 5 nM LTB4): dose-dependently enhanced the phagocytic index
- phagocytic index [2]: 27±8
- effect of LTB4 pretreatment on LTB4-augmented phagocytosis ([3]; cells pretreated with LTB4 1 nM for 1 hour, washed, then bacteria plus LTB4 1 nM): almost completely abrogated
- increase in phagocytic index [3, 13]: approximately 6 fold
- effect on in vivo bacterial clearance ([4]; intrapulmonary administration): partially overcame the in vivo impairment in bacterial clearance
- reduction of lung CFU ([4]; single 6 ng intratracheal dose with 50 CFU inoculum, 24 hours): approximately 10 fold
- neutrophil influx [5]: resulted in neutrophil influx
- in vitro phagocytosis and killing of P. aeruginosa and Salmonella typhimurium [6]: enhanced the in vitro phagocytosis and killing
- in vitro killing of Schistosoma mansoni [7]: enhanced
- in vivo clearance of S. typhimurium [8]: enhanced the in vivo clearance
- neutrophil influx [9]: brisk neutrophil influx

Structure (SMILES): O=C(O)C1(c2ccc3c(c2)OC[C@H](Cc2ccc(-c4ccccc4)cc2)[C@H]3O)CCCC1 [CP-105,696]
- collagen-induced arthritis [10]: inhibited collagen-induced arthritis

Structure (SMILES): CCCCC/C=C\C\C=C/C=C/C=C/[C@@H](SC[C@H](NC(=O)CC[C@H](N)C(=O)O)C(=O)NCC(=O)O)[C@@H](O)CCCC(=O)O [LTC4, leukotriene C4]
- effect on phagocytic index [3, 13]: augmented phagocytosis to a degree similar to LTB4

Structure (SMILES): C[C@H](C#Cc1ccc(Oc2ccc(F)cc2)o1)N(O)C(N)=O [A-79175]
- efficacy in mice [11]: demonstrated efficacy in mice

Structure (SMILES): CCCCC/C=C\C/C=C\C/C=C\C=C\[C@@H](O)CCCC(=O)O [5-HETE]
- effect on phagocytic index [3, 13]: similar, though less pronounced, effect

Structure (SMILES): CN(C)C(=O)CCSC(SCCC(=O)O)c1cccc(/C=C/c2ccc3ccc(Cl)cc3n2)c1 (stereo not drawn) [MK-571]
- antigen-induced bronchoconstriction [12]: effectively inhibited antigen-induced bronchoconstriction
